Source: patent US10633354B2, “Substituted tricyclic heterocyclic compounds” (BRISTOL-MYERS SQUIBB COMPANY, priority 2016, dated 2020)

How the values were obtained:
S1P3 = target: T1, S1P3 (Homo sapiens, UniProt Q99500); assay: Receptor [35S] GTPγS binding assay (S1P3 GTPγS); type: biochemical; details: membranes from EDG3-Ga15-bla HEK293T cells; read-out: S1P3 GTPgS (EC50)
T1 construct: expressed in transfected cells; host or cells: HEK293T cells (EDG3-Ga15-bla), membranes
Method: (§1) The compounds of Formula (I), Formula (II), Formula (III), and Formula (IV), and salts thereof in which R2 is —OH, engage their biological targets (e.g. S1P1) after bioactivation through phosphorylation of the alcohol to provide an active phosphate ester compound of Formula (I), Formula (II), Formula (III), and Formula (IV), or salts thereof, in which R2 is —OP(O)(OH)2. In vitro characterization of biological activity of the examples was conducted on synthetically prepared samples of the phosphorylated compounds.
(§2) Receptor [^35S] GTPyS Binding Assays: (S1P1 GTPyS/S1P3 GTPyS)
(§3) Compounds were loaded in a 384 Falcon v-bottom plate (0.5 μl/well in a 11 point, 3-fold dilution). Membranes prepared from S1Pi/CHO cells or EDG3-Ga15-bla HEK293T cells (EDG3 equivalent S1P3) were added to the compound plate (40 μl/well, final protein 3 μg/well) with MULTIDROP®. [^35S] GTP (1250 Ci/mmol, Perkin Elmer) was diluted in assay buffer: 20 mM HEPES, pH7.5, 10 mM MgCl2, 150 mM NaCl, 1 mM EGTA (ethylene glycol tetraacetic acid), 1 mM DTT (Dithiothreitol), 10 μM GDP, 0.1% fatty acid free BSA, and 10 μg/ml Saponin to 0.4 nM. 40 μl of the [^35S] GTP solution was added to the compound plate with a final concentration of 0.2 nM. The reaction mixture was kept at room temperature for 45 min. At the end of incubation, all the mixtures in the compound plate were transferred to Millipore 384-well FB filter plates via the VELOCITY 11® Vprep liquid handler. The filter plate was washed with water 4 times by using the manifold Embla plate washer and dried at 60° C. for 45 min. MicroScint 20 scintillation fluid (30 μl) was added to each well for counting on the Packard TOPCOUNT®. ECso is defined as the agonist concentration that corresponds to 50% of the Ymax (maximal response) obtained for each individual compound tested.
(§4) A smaller value for GTPyS S1 P1 EC50 value indicated greater activity for the compound in the GTPyS S1P1 binding assay. A larger value for the GTPyS S1 P3 EC50 value indicated less activity in the GTPyS S1 P3 binding assay (Table A).

S1P1 = target: T2, S1P1 (Homo sapiens, UniProt P21453); assay: Receptor [35S] GTPγS binding assay (S1P1 GTPγS); type: biochemical; details: membranes from S1P1/CHO cells; for S1P1 GTPgS (Ymax): maximal response; for EC50: phosphorylated compounds, read-out: S1P1 GTPgS (EC50)
T2 construct: expressed in transfected cells; host or cells: CHO cells (S1P1/CHO), membranes
T2 sequence (P21453 whole entry): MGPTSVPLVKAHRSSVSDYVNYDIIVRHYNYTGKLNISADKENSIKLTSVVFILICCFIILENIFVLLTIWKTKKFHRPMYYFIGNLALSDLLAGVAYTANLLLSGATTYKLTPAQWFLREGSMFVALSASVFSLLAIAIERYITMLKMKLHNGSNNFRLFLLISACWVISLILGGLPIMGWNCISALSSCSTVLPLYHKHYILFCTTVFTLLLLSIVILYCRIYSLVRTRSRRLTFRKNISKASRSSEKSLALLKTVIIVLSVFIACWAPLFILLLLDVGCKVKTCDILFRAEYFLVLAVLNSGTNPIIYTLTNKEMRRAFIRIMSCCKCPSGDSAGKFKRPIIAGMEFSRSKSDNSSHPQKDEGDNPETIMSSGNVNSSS
Method: as §1, §2, §3, §4

T1 sequence (Q99500 whole entry): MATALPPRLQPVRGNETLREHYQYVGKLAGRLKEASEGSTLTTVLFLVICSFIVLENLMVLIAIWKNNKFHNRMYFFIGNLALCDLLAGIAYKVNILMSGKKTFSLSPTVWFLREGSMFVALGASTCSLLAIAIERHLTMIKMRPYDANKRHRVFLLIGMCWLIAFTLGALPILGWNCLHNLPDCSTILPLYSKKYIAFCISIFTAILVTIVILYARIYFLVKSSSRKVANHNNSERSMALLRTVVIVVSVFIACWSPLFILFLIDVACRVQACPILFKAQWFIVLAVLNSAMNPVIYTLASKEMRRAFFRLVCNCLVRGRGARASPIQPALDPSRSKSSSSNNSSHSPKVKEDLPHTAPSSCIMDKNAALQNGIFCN

Compound | EC50 (S1P3) [nM] | S1P1 GTPgS (Ymax) (S1P1) [%] | EC50 (S1P1) [nM]
CCCCOCCOc1nc2c(s1)-c1ccc([C@H]3CC[C@](N)(COP(=O)(O)O)C3)cc1CC2 [Example 26, ((1R,3S)-1-amino-3-(2-(2-butoxyethoxy)-4,5-dihydronaphtho[2,1-d]thiazol-7-yl)cyclopentyl)methyl Dihydrogen Phosphate] | 190 | 107 | 1
CCCCCCCc1nc2c(s1)-c1ccc([C@H]3CC[C@](N)(COP(=O)(O)O)C3)cc1CC2 [Example 27] | > 3000 | 98 | 10
CCCc1nc2c(s1)-c1ccc([C@H]3CC[C@](N)(COP(=O)(O)O)C3)cc1CC2 [Example 28] | > 3000 | 79 | 19
CCCCOc1nc2c(s1)-c1ccc([C@H]3CC[C@](N)(COP(=O)(O)O)C3)cc1CC2 [Example 29] | > 3000 | 58 | 30
CCCCCCOc1nc2c(s1)-c1ccc([C@H]3CC[C@](N)(COP(=O)(O)O)C3)cc1CC2 [Example 30, ((1R,3S)-1-amino-3-(2-(hexyloxy)-4,5-dihydronaphtho[2,1-d]thiazol-7-yl)cyclopentyl) methyl dihydrogen phosphate] | > 3000 | 102 | 12
CCCCSc1nc2c(s1)-c1ccc([C@H]3CC[C@](N)(COP(=O)(O)O)C3)cc1CC2 [Example 31, ((1R,3S)-1-amino-3-(2-(butylthio)-4,5-dihydronaphtho[2,1-d]thiazol-7-yl)cyclopentyl)methyl dihydrogen phosphate] | > 3000 | 58 | 20
CCCCNc1nc2c(s1)-c1ccc([C@H]3CC[C@](N)(COP(=O)(O)O)C3)cc1CC2 [Example 32, ((1R,3S)-1-amino-3-(2-(butylamino)-4,5-dihydronaphtho[2,1-d]thiazol-7-yl)cyclopentyl)methyl dihydrogen phosphate] | > 3000 | 49 | 133
